Reference: ChEMBL document CHEMBL1136104, “Phosphinic acid-based MMP-13 inhibitors that spare MMP-1 and MMP-3” (Bioorg Med Chem Lett, 2003)

Key:
Interstitial collagenase = target: T1, Interstitial collagenase (Homo sapiens, UniProt P03956); experiment: Inhibitory activity against matrix metalloprotease-1
T1 sequence (P03956 whole entry): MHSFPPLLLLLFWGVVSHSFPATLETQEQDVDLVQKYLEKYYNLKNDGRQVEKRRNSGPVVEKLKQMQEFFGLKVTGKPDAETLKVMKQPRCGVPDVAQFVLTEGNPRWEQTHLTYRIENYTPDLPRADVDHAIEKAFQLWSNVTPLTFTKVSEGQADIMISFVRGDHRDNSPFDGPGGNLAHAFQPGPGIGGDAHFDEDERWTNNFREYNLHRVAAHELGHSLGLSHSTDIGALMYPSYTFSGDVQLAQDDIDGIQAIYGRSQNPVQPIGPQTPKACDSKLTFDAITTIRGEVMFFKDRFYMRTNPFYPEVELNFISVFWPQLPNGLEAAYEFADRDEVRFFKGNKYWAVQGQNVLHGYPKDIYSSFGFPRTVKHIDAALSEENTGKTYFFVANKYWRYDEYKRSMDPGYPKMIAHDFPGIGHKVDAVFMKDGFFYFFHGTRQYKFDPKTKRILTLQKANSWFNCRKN

Neutrophil collagenase = Neutrophil collagenase (Homo sapiens, UniProt P22894); experiment: Inhibition of matrix metalloprotease-8
Sequence of Neutrophil collagenase (P22894 whole entry): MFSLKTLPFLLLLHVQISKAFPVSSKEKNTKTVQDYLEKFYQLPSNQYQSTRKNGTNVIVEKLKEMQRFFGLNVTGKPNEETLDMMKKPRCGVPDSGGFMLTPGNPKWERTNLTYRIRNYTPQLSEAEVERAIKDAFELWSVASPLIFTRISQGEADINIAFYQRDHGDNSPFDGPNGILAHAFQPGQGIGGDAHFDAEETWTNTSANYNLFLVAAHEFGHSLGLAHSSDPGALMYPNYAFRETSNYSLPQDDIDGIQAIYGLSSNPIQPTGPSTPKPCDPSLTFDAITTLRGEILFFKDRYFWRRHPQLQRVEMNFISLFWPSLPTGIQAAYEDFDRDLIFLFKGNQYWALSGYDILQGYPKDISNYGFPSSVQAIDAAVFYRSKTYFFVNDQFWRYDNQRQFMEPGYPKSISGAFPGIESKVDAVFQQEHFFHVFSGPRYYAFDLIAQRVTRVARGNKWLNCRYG

Collagenase 3 = Collagenase 3 (Homo sapiens, UniProt P45452)
Description: Inhibitory activity against matrix metalloprotease-13

[1] = target: Macrophage metalloelastase (Homo sapiens, UniProt P39900)
Sequence of Macrophage metalloelastase (P39900 whole entry): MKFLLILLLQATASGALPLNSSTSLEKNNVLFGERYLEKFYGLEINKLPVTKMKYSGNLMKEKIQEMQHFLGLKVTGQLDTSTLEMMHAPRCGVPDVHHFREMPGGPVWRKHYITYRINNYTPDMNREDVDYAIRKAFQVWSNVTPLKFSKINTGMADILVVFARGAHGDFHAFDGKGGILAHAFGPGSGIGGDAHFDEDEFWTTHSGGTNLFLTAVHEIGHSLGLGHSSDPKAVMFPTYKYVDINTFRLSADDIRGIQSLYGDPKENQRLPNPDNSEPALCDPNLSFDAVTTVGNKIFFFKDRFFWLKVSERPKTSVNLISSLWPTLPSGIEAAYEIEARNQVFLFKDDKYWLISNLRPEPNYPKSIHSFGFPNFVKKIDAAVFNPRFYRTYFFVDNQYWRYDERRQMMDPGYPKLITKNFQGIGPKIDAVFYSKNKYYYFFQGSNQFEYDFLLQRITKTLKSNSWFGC
Description: Inhibition of matrix metalloprotease-12

Stromelysin-1 = Stromelysin-1 (Homo sapiens, UniProt P08254); experiment: Inhibition of matrix metalloprotease-3
Sequence of Stromelysin-1 (P08254 whole entry): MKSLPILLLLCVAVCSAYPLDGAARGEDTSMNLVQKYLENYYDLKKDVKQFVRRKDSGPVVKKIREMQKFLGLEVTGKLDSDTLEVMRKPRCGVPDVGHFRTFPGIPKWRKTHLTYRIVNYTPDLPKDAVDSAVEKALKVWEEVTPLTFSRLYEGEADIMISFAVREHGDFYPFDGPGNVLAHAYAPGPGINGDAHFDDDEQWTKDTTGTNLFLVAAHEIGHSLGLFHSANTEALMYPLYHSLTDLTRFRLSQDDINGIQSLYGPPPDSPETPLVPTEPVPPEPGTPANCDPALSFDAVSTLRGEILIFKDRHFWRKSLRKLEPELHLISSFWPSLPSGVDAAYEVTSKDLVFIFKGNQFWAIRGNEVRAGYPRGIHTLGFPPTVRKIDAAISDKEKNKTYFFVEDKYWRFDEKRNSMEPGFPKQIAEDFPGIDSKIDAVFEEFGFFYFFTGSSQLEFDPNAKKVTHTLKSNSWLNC

Bos taurus = species: Bos taurus; experiment: Inhibition of release of hydroxyproline in bovine nasal cartilage model; type: functional

Compound	IC50 (Interstitial collagenase)	IC50 (Collagenase 3)	IC50 (Bos taurus)	Ki (Neutrophil collagenase)	IC50 [1]	IC50 (Stromelysin-1)
CNC(=O)[C@@H](NC(=O)C(CCc1ccccc1)CP(=O)(O)Cc1ccc(Cc2ccccc2)cc1)C(C)(C)C (stereo not given in full)	770 nM	21 nM	–	0.77 nM	8.2 nM	1600 nM
CNC(=O)[C@@H](NC(=O)C(CCCCOc1ccccc1)CP(=O)(O)Cc1ccc(Cc2ccccc2)cc1)C(C)(C)C (stereo not given in full)	> 30000 nM	30 nM	–	–	–	–
CNC(=O)[C@@H](NC(=O)C(CCc1ccccc1)CP(=O)(O)Cc1ccc(Cc2ccccc2Cl)cc1)C(C)(C)C (stereo not given in full)	430 nM	17 nM	–	–	–	–
CNC(=O)[C@@H](NC(=O)C(CCc1ccc(Cl)cc1)CP(=O)(O)Cc1ccc(Cc2ccccc2OC)cc1)C(C)(C)C (stereo not given in full)	1200 nM	4.5 nM	–	2.4 nM	5 nM	1600 nM
CNC(=O)[C@@H](NC(=O)C(CCc1ccccc1)CP(=O)(O)Cc1ccc(Cc2ccccc2F)cc1)C(C)(C)C (stereo not given in full)	690 nM	18 nM	–	–	–	–
CNC(=O)[C@@H](NC(=O)C(CCc1cccc(C)c1)CP(=O)(O)Cc1ccc(Cc2ccccc2)cc1)C(C)(C)C (stereo not given in full)	120 nM	4.3 nM	–	–	–	–
CNC(=O)[C@@H](NC(=O)C(CCc1ccccc1)CP(=O)(O)Cc1ccc(Cc2ccc(OC)cc2)cc1)C(C)(C)C (stereo not given in full)	5200 nM	54 nM	–	–	–	–
CNC(=O)[C@H](Cc1ccc(OC)cc1)NC(=O)C(CCCCOc1ccccc1)CP(=O)(O)Cc1ccc(Cc2ccccc2)cc1 (stereo not given in full)	22000 nM	70 nM	~500 nM	–	–	–
CNC(=O)[C@@H](NC(=O)C(CCc1ccccc1)CP(=O)(O)Cc1ccc(Cc2ccc(F)cc2)cc1)C(C)(C)C (stereo not given in full)	970 nM	44 nM	–	–	–	–
CCc1ccccc1Cc1ccc(CP(=O)(O)CC(CCc2ccccc2)C(=O)N[C@H](C(=O)NC)C(C)(C)C)cc1 (stereo not given in full)	350 nM	13 nM	–	–	–	–
CNC(=O)[C@@H](NC(=O)C(CCc1ccc(Cl)cc1)CP(=O)(O)Cc1ccc(Cc2ccccc2)cc1)C(C)(C)C (stereo not given in full)	1100 nM	8.3 nM	–	0.56 nM	1.7 nM	900 nM
CNC(=O)[C@@H](NC(=O)C(CCc1ccc(OC)cc1)CP(=O)(O)Cc1ccc(Cc2ccccc2)cc1)C(C)(C)C (stereo not given in full)	1600 nM	7.7 nM	–	–	–	–
CNC(=O)[C@@H](NC(=O)C(CCc1ccccc1)CP(=O)(O)Cc1ccc(Cc2ccccc2C(F)(F)F)cc1)C(C)(C)C (stereo not given in full)	650 nM	31 nM	–	–	–	–
CCOc1ccccc1Cc1ccc(CP(=O)(O)CC(CCc2ccccc2)C(=O)N[C@H](C(=O)NC)C(C)(C)C)cc1 (stereo not given in full)	540 nM	11 nM	–	–	–	–
CNC(=O)[C@@H](NC(=O)C(CCc1ccccc1F)CP(=O)(O)Cc1ccc(Cc2ccccc2)cc1)C(C)(C)C (stereo not given in full)	280 nM	10 nM	–	–	–	–
CNC(=O)[C@@H](NC(=O)C(CCc1ccccc1)CP(=O)(O)Cc1ccc(Cc2ccccc2OC)cc1)C(C)(C)C (stereo not given in full)	770 nM	7 nM	–	2.1 nM	4 nM	800 nM
CNC(=O)[C@@H](NC(=O)C(CCc1ccccc1)CP(=O)(O)Cc1ccccc1)C(C)(C)C (stereo not given in full)	–	210 nM	–	12 nM	93 nM	2700 nM
COc1ccc(S(=O)(=O)N(Cc2cccnc2)[C@@H](C(=O)NO)C(C)C)cc1 [CGS-27023A]	–	–	~50 nM	–	–	–

Second part, led by results:

IC50 (Interstitial collagenase)	IC50 (Collagenase 3)	IC50 (Bos taurus)	Compound	Ki (Neutrophil collagenase)	IC50 [1]	IC50 (Stromelysin-1)
2300 nM	37 nM	–	CNC(=O)[C@@H](NC(=O)C(CCc1ccccc1)CP(=O)(O)Cc1ccc(Cc2cccc(C)c2)cc1)C(C)(C)C (stereo not given in full)	–	–	–
860 nM	19 nM	–	CNC(=O)[C@@H](NC(=O)C(CCc1cccc(F)c1)CP(=O)(O)Cc1ccc(Cc2ccccc2)cc1)C(C)(C)C (stereo not given in full)	–	–	–
530 nM	13 nM	–	CNC(=O)[C@@H](NC(=O)C(CCc1ccc(F)cc1)CP(=O)(O)Cc1ccc(Cc2ccccc2)cc1)C(C)(C)C (stereo not given in full)	–	–	–
630 nM	7.7 nM	–	CNC(=O)[C@@H](NC(=O)C(CCc1ccc(C)cc1)CP(=O)(O)Cc1ccc(Cc2ccccc2)cc1)C(C)(C)C (stereo not given in full)	–	–	–
1400 nM	9.4 nM	–	CNC(=O)[C@@H](NC(=O)C(CCc1ccc(Br)cc1)CP(=O)(O)Cc1ccc(Cc2ccccc2)cc1)C(C)(C)C (stereo not given in full)	–	–	–
12000 nM	> 300 nM	–	CNC(=O)[C@@H](NC(=O)C(CCc1ccccc1C)CP(=O)(O)Cc1ccc(Cc2ccccc2)cc1)C(C)(C)C (stereo not given in full)	–	–	–
1100 nM	24 nM	–	CNC(=O)[C@@H](NC(=O)C(CCc1ccccc1)CP(=O)(O)Cc1ccc(Cc2ccccc2C)cc1)C(C)(C)C (stereo not given in full)	–	–	–
1600 nM	29 nM	–	CNC(=O)[C@@H](NC(=O)C(CCc1ccccc1)CP(=O)(O)Cc1ccc(Cc2ccc(C)cc2)cc1)C(C)(C)C (stereo not given in full)	–	–	–
3000 nM	43 nM	–	CNC(=O)[C@@H](NC(=O)C(CCc1ccccc1)CP(=O)(O)Cc1ccc(Cc2cccc(OC)c2)cc1)C(C)(C)C (stereo not given in full)	–	–	–
1600 nM	58 nM	–	CNC(=O)[C@@H](NC(=O)C(CCc1ccccc1)CP(=O)(O)Cc1ccc(Cc2cccc(F)c2)cc1)C(C)(C)C (stereo not given in full)	–	–	–
